Experiment: physchem
Conditions: octan-1-ol/water, pH 7.4

| SMILES | logD |
| --- | --- |
| C=C1C[C@@H]2[C@H](CC[C@]3(C)C(=O)CC[C@@H]23)[C@@]2(C)C=CC(=O)C=C12 [EXEMESTANE] | 2.98 |
| C[C@@H]1C2CCCC1(c1cccc(O)c1)CCN2C (stereo partly drawn) | 0.52 |
| O=C(O)CCC(=O)N1CCC(c2nc(-c3cccs3)no2)CC1 | -1.27 |
| O=C1CC(c2ccc(O)cc2)Oc2cc(O)cc(O)c21 (stereo not drawn) | 2.6 |
| O=C(c1ccc(C(=C2CCN(Cc3cscn3)CC2)c2cccc3cccnc23)cc1)N1CCOCC1 | 2.12 |
| Cc1ccc(NC(=O)c2ccnc(N3CCOCC3)c2)cc1Nc1ccnc(N(C)C2CCN(C)CC2)n1 | 1.8 |
| CC(=O)NC1CC2CCCC(C1)N2C(=O)Nc1ccc(Cl)c(C(F)(F)F)c1 (stereo not drawn) | 2.79 |
| Oc1ccc(Br)c2ccccc12 | 4.3 |
| CCC[C@@H](CN1CCCC1)N(C)C(=O)Cc1ccc(Cl)c(Cl)c1 | 2.27 |
| CN1CCC[C@H]1c1cccnc1 [NICOTINE] | 0.5 |
| CN(C)CC/C=C1\c2ccccc2Sc2ccc(Cl)cc21 | 3.42 |
| Cc1ccc(CN2[C@@H]3CC[C@H]2C[C@H](Oc2cccc(C(N)=O)c2)C3)s1 | 2.44 |
| CCN(CC)C(=O)c1ccc(C2=CC3(CCNCC3)Oc3cccc(O)c32)cc1 [ADL-5859] | 0.54 |
| CCn1cc(C(=O)O)c(=O)c2ccc(C)nc21 [NALIDIXIC ACID] | -0.1 |

Same assay, conditions: octan-1-ol/water, pH 7.4, LogD7.4

| SMILES | logD |
| --- | --- |
| O=c1cc(-c2ccccc2)oc2ccc(O)cc12 [6-HYDROXYFLAVONE] | 3.6 |
| Nc1cccc2c1C(=O)N(Cc1cccc(Cl)c1)C2=O | 3.18 |
| CC1CN(Cc2cc(Cl)ccc2OCC(=O)O)CCN1S(=O)(=O)c1ccccc1 (stereo not drawn) | 0.31 |
| O=C(Nc1cccc(Cl)c1)N1CCN(C[C@@H]2CCCN(C3CC3)C2)CC1 | 2.74 |
| CN1CCN(c2ccc(Nc3ccnc4ccccc34)cc2)CC1 | 1.3 |
| CN1CCCC(n2nc(Cc3ccc(Cl)cc3)c3ccccc3c2=O)CC1 (stereo not drawn) [AZELASTINE] | 2.46 |
| CCCN(CCC)C(=O)c1cccc(C(=O)N[C@@H](Cc2ccccc2)[C@H](O)CNCc2cccc(OC)c2)c1 | 2.7 |
| NC(N)=Nc1nc(CSCCC(N)=NS(N)(=O)=O)cs1 [FAMOTIDINE] | -0.6 |
| O=c1c(-c2ccc(O)c(O)c2)coc2cc(O)cc(O)c12 [OROBOL] | 2.45 |
| CCC(c1nc2ccsc2c(=O)n1Cc1ccc(OC)cc1)N(CCCN)C(=O)c1ccc(C)cc1 (stereo not drawn) | 2.15 |
| O=C(CSc1ccccc1)N1CCN(c2ccccc2)CC1 | 3.2 |
| O=C1CCOc2nc(CCc3ccccc3)ccc21 | 2.5 |
| CCN(CC)CCOC(=O)c1ccc(N)cc1 [PROCAINE] | 0 |
| CCNC(=O)OC[C@@H](C)N(c1cc(Cl)ccc1CO)S(=O)(=O)c1ccc(Cl)cc1 | 3.4 |
| Cc1c(Cl)ccc(OC2CCN(C[C@H](O)CNC(=O)c3c[nH]c(=O)c4cc(S(C)(=O)=O)ccc34)CC2)c1Cl | 2.83 |
| O=C(NC1Cc2ccccc2N(C[C@@H](O)CO)C1=O)c1cc2cc(Cl)sc2[nH]1 (stereo partly drawn) | 3.37 |
| COc1cc(N2CC[C@@H](N(C)C)C2)c2[nH]c(C(=O)Nc3ccc(N4CCOCC4)cc3)cc(=O)c2c1 | 2.7 |
| COc1cccc(OC)c1-c1ccc(C[C@H](NC(=O)c2c(Cl)cccc2Cl)C(=O)O)cc1 | -0.27 |
| Nc1cc2n[nH]c(=O)n2c2cc(-c3ccsc3)ccc12 | 3.18 |
| Cc1nc2nc(NC(=O)c3ccc(F)cc3)nn2c(O)c1Cc1ccccc1 | 2.2 |
| CN(C)CCOc1ccccc1Cc1ccccc1 [PHENYLTOLOXAMINE] | 2.53 |
| Cc1c(CCC(=O)O)c(=O)oc2cc(O)ccc12 | -0.7 |
| Cc1[nH]c(C(=O)NC2CCN(c3cc(C(=O)O)cc(Cl)n3)CC2)c(Cl)c1Cl | 1.74 |
| O=C(NCc1ccccc1)c1cccnc1Oc1ccccc1 | 3 |

| SMILES | logD |
| --- | --- |
| NC1=NC(c2ccc(Cl)c(Cl)c2)CC(=O)N1 (stereo not drawn) | 1.46 |
| CNS(=O)(=O)c1ccc2c(C(=O)NC[C@@H](O)CN3CCC(Oc4ccc(Cl)c(Cl)c4)CC3)c[nH]c(=O)c2c1 | 2.77 |
| COc1cc2ncnc(Nc3ccc(F)c(Cl)c3)c2cc1OCCCN1CCCC1 | 3.13 |
| O=C(NC[C@@H](O)CN1CCC(Oc2ccc(Cl)c(Cl)c2)CC1)c1cn2cc(F)ccc2n1 | 3.33 |
| CC(C)C(NC(=O)Cn1c(-c2ccc(F)cc2)ncc(NC(=O)OCc2ccncc2)c1=O)C(=O)C(F)(F)F (stereo not drawn) | 2.22 |
| COC(=O)COc1ccc(OCCNCC(O)COc2ccccc2)cc1 (stereo not drawn) | 1.54 |
| CC[C@H](NC(=O)c1c(S(C)(=O)=O)c(-c2ccccc2)nc2ccccc12)c1ccccc1 | 3.17 |
| O=C(Cc1ccc(O)cc1)c1ccc(O)cc1O | 2.54 |
| Cn1cc(C#N)cc1-c1c2c(=O)n(CC#N)c(=O)n(CC3CC3)c2nn1Cc1ccnc2ccc(Cl)cc12 | 3.33 |
| CCOC(=O)c1cc(O)c(-c2ccccc2)nn1 | 0.69 |
| CNc1c(Br)cnc2[nH]c(-c3ccc(O)cc3)nc12 | 2.47 |
| Cc1oc(S(C)(=O)=O)cc1-c1c2c(=O)n(C)c(=O)n(CC3CC3)c2nn1Cc1cn(C)c2ccc(Cl)cc12 | 4.48 |
| O=C(CC1CCN(Cc2ccn(-c3ccc(C(F)(F)F)cc3)c2)CC1)N(CCCO)Cc1ccc(F)cc1 | 3.04 |
| Clc1ccc(C2=CSC3=NCCN23)cc1Cl | 1.54 |
| O=c1c(-c2ccc3c(c2)OCO3)coc2cc(O)cc(O)c12 | 3.5 |
| Cc1cc2n[nH]c(=O)n2c2cc(-c3ccc(CO)cc3)ccc12 | 2.86 |
| O=C1NC(c2ccc(Br)cc2)Nc2ccccc21 (stereo not drawn) | 2.68 |
| Cc1cc(C)c2c(N)c(C(=O)NCc3ccccc3)sc2n1 | 3.41 |
| Nc1cc2n[nH]c(=O)n2c2cc(-c3cccs3)ccc12 | 3.26 |
| OCC[C@@]1(c2ccc(Cl)c(Cl)c2)CCCNC1 | 0.62 |
| COc1cc2c(Nc3ccc(Cl)cc3F)ncnc2cc1OCCn1cncn1 | 3.2 |
| COCCOc1cc2nccc(Nc3cc(O)c(Cl)cc3F)c2cc1OC | 2.64 |
| CCCC(=O)C1(c2ccccc2)CCN(C(=O)[C@@H](Cc2ccc(OC)cc2)NC(=O)[C@@H](N)Cc2cncn2C)CC1 | 2.51 |
| Cc1cc(S(=O)(=O)N2CCN(C)CC2)ccc1-c1cnc(N)c(C(=O)Nc2cccnc2)n1 | 2.6 |

| SMILES | logD |
| --- | --- |
| CC(=O)N(C)c1ccc(Nc2ncc3cc(-c4ccncc4)ccc3n2)cc1 | 2.88 |
| NC(=O)c1ccc(Br)cc1 | 1.75 |
| COc1cc2c(Nc3ccc(F)cc3F)c(C(N)=O)cnc2cc1N1CCN(C)CC1 | 1.75 |
| CCCc1c(OCCCOc2ccc3c(=O)cc(C(=O)O)oc3c2CCC)ccc(C(C)=O)c1O | 3 |
| COc1cc(OC2CCN(C)CC2)c2c(Nc3cccc4c3OCCO4)ncnc2c1 | 2.26 |
| Cc1cc(=O)[nH]c2ccccc12 | 1.9 |
| Cc1ccc(C(=O)N2CCC(C(=O)c3ccc(Cl)cc3)CC2)cc1 | 3.79 |
| COc1cccc(Nc2ncnc3cc(OC)c(OC)cc23)c1 | 3.1 |
| O=S(=O)(Nc1nnc(-c2ccccc2)s1)c1ccc(Cl)cc1 | 1.14 |
| Cn1c(CN2CCN(c3cccc(Cl)c3)CC2)nc2ccccc21 | 3.75 |
| COC(=O)c1ccc(CC(=O)N(C)C2CCN(CCC(c3ccccc3)c3ccccc3)CC2)cc1 | 4 |
| O=c1[nH]ccc2nc(-c3ccc(CN4CCC(c5n[nH]c(-c6ccccn6)n5)CC4)cc3)c(-c3ccccc3)cc12 | 3.9 |
| N#Cc1ccc(S(=O)(=O)NCC(c2ccccc2)N2CCCCCC2)cc1 (stereo not drawn) | 2.86 |
| Cc1cc2nc(NC(=N)N)nc(C)c2cc1C | 0.7 |
| COc1ncc2ncc(=O)n(CCN3CCC(NCc4cc5c(cn4)OCCO5)CC3)c2n1 | -0.14 |
| COCCC(=O)Nc1ccc(Nc2ncc3cc(-c4ccncc4)ccc3n2)cc1 | 2.78 |
| Cc1ccc(CO)cc1N(C)c1ccnc(Nc2cc(N3CCCCC3)cc(N3CCOCC3)c2)n1 | 4.2 |
| CNCC[C@@H](Oc1ccccc1C)c1ccccc1 [ATOMOXETINE] | 1.2 |
| CN(C(=O)Cc1ccc(O)cc1)C1CCN(CCC(c2ccccc2)c2ccccc2)CC1 | 3.3 |
| CCN(CC)CC(=O)Nc1c(C#N)cnn1-c1ccccc1 | 0.4 |
| CS(=O)(=O)c1ccc(C(=O)NC[C@@H](O)CN2CCC(Oc3ccc(Cl)c(Cl)c3)CC2)s1 | 2.86 |
| N=C(N)Nc1nc2ccccc2o1 | 1.91 |
| O=C(Nc1ccccc1)c1cc(Cl)ccc1O | 2.9 |
| N#Cc1ccc2cccc(O)c2n1 | 1.81 |

| SMILES | logD |
| --- | --- |
| COc1cc2nnc(C(N)=O)c(Nc3cc(C)ccc3F)c2cc1N1CCN(C)CC1 | 2.57 |
| CN(C)CC(O)COc1ccc(Nc2nccc(Nc3ccccc3)n2)cc1 (stereo not drawn) | 1.58 |
| C#CCn1c(=O)c2c(-c3cc(C#N)cn3C)n(Cc3ccnc4ccc(Cl)cc34)nc2n(CC2CC2)c1=O | 3.96 |
| Clc1ccccc1CNC[C@H]1CC[C@H](CNCc2ccccc2Cl)CC1 | 2.74 |
| Cc1oc(C#N)cc1-c1c2c(=O)n(C)c(=O)n(CC3CC3)c2nn1Cc1ccnc2ccc(Cl)cc12 | 4.26 |
| Cn1c(-c2ccc(O)nc2)nc2ccccc21 | 1.2 |
| CS(=O)(=O)c1ccccc1C(=O)NCC(O)CNC1CCN(Cc2ccc(Cl)c(Cl)c2)CC1 (stereo not drawn) | 1.21 |
| CC(C)(C)c1cc(O)n2nc(N)nc2n1 | -0.2 |
| Cc1cc2n[nH]c(=O)n2c2cc(-c3ccc(C(=O)N4CCOCC4)cc3)ccc12 | 2.77 |
| Cc1ncc(-c2ccnc(Nc3ccc(C(=O)N(C)C)cc3)n2)n1C(C)C | 2.45 |
| CC1CCN(C(=O)c2scc3c2OCCO3)CC1 | 2.26 |
| CC(C)C(NC(=O)Cn1c(-c2ccccc2)ccc(N)c1=O)C(=O)C(F)(F)F (stereo not drawn) | 1.74 |
| Cc1c(Sc2ccc(Cl)cc2)c2cc(Cl)ccc2n1Cc1nnn[nH]1 | 3.25 |
| CC(C)OC(=O)N1CCC(Oc2ncnc3c2CCN3c2ccc(S(C)(=O)=O)cc2F)CC1 | 3.4 |
| C[C@@H](O)[C@@H](CO)Nc1nc(SCc2cccc(F)c2F)nc2nc(N)sc12 | 2.83 |
| COc1cc(CNc2nc3ccccc3[nH]2)cc(OC)c1OC | 2.36 |
| Nc1[nH]ncc1S(=O)(=O)c1ccccc1 | 1.1 |
| CC(NC(=O)C1(N)CCN(c2ncnc3[nH]ccc23)CC1)c1ccc(F)cc1 (stereo not drawn) | 2.4 |
| CCCSc1ncccc1C(=O)N[C@@H]1[C@@H]2CC3C[C@H]1C[C@@](O)(C3)C2 | 2.27 |
| COc1cc(CCc2cc(Nc3ccnc(NCc4ccccn4)n3)[nH]n2)cc(OC)c1 | 3.5 |
| COc1cc2ncnc(Nc3cc(NC(=O)c4ccnc(N5CCOCC5)c4)ccc3C)c2cc1OCCN1CCCC1 | 2.7 |
| Cc1ccc(OCC(=O)O)c(-n2nc3ccccc3n2)c1 | -0.84 |
